Reference: US11352322B2, “Cyclopropyl-amide compounds as dual LSD1/HDAC inhibitors” (Jubilant Epicore LLC, priority 2016, dated 2022)
Counter-ions that a name gives are not always drawn. Like-named read-outs stand apart in the source and are kept apart here.

What was measured:
[1] = test system: MM1S; assay: Anticancer activity: Alamar Blue assay, MM1S; assay type: cell-based; settings: Homo sapiens, MM1.S, read-out: MM1S EC50
[2] = test system: A375; assay: cells; settings: Homo sapiens, A-375, 144 h, read-out: Anticancer profileration EC50 A375
Description: (§1) Anticancer Activity: Alamar Blue Assay
(§2) Cells were seeded at 5000 cells/per well in 96-well tissue culture plate and incubated at 37° C./5% CO2. After 16-24 hours, fresh media was added to the wells. Compounds were then (1% DMSO conc.) added to the cells at 10 concentrations ranging from 10-0.0005 uM prepared in 3-fold serial dilutions. […] Alamar Blue™ reagent was added and incubated for 1-3 hours at 37° C./5% CO2. Plates were read on fluorescence reader at 540 nm excitation, 590 nm emission wave lengths.
(§3) As described above, compounds were tested for anticancer activities in different tumor cell lines and GI50 were determined.

[3] = test system: HEL-92.1.7; assay: cells; settings: Homo sapiens, HEL 92.1.7, 144 h, read-out: Anticancer profileration EC50 HEL-92.1.7
Description: as §1, §2, §3

[4] = test system: MDAMB231; assay: cells; settings: Homo sapiens, MDA-MB-231, 144 h, read-out: Anticancer profileration EC50 MDAMB231
Description: as §1, §2, §3

[5] = test system: MV-4-11; assay: cells; settings: Homo sapiens, MV4-11, 144 h, read-out: Anticancer profileration EC50 MV-4-11
Description: as §1, §2, §3

[6] = test system: OCI-AML3; assay: cells; settings: Homo sapiens, OCI-AML-3, 144 h, read-out: Anticancer profileration EC50 OCI-AML3
Description: as §1, §2, §3

[7] = test system: CCRF-CEM; assay: cells; settings: Homo sapiens, 144 h, read-out: Anticancer profileration EC50 CCRF-CEM
Description: as §1
Cells were seeded at 5000 cells/per well in 96-well tissue culture plate and incubated at 37° C./5% CO2. After 16-24 hours, fresh media was added to the wells. Compounds were then (1% DMSO conc.) added to the cells at 10 concentrations ranging from 10-0.0005 uM prepared in 3-fold serial dilutions. Cells were incubated for 68-72 h at 37° C./5% CO2. Alamar Blue™ reagent was added and incubated for 1-3 hours at 37° C./5% CO2. Plates were read on fluorescence reader at 540 nm excitation, 590 nm emission wave lengths.
as §3

[8] = biological target: LSD1 (Homo sapiens (Human), UniProt O60341); assay: TR-FRET Assay for LSD1; settings: read-out: LSD1 IC50
Description: TR-FRET Assay for LSD1 (Perkin Elmer)
Tranylcypromine (TCP), LSD1 inhibitor was procured from Selleckchem. […] Stop Solution containing 300 μM tranylcypromine in 1× LANCE Detection Buffer was added to the wells and incubated for 5 min at RT. Then, Detection mix containing 2 nM Eu-Ab and 50 nM ULight-Streptavidin in 1× LANCE Detection Buffer was prepared and added to the reaction mix. This mixture was incubated for 1 hour at room temperature.

[9] = Metabolic stability in liver microsomes, HLM; settings: 1 μM, NADPH
Description: (§4) The microsomal suspension was prepared by adding liver microsomes to 100 mM potassium phosphate buffer (pH7.4) to give a final protein concentration of 0.5 mg/mL. The stock solution of NCE (10 mM in DMSO) was added to the microsomes to provide a final concentration of 1 μM. […] Samples were vortexed and centrifuged at 5,000 rpm for 10 min to remove proteins. Supernatant were analyzed on LC-MS/MS.

[10] = Metabolic stability in liver microsomes, MLM; settings: 1 μM, NADPH
Description: as §4

[11] = biological target: HDAC6 human recombinant enzyme (Homo sapiens (Human), UniProt Q9UBN7); assay: Histone Deacetylase Assay (BPS Biosciences), HDAC6; assay type: biochemical
Chain of HDAC6 human recombinant enzyme (Q9UBN7 whole entry): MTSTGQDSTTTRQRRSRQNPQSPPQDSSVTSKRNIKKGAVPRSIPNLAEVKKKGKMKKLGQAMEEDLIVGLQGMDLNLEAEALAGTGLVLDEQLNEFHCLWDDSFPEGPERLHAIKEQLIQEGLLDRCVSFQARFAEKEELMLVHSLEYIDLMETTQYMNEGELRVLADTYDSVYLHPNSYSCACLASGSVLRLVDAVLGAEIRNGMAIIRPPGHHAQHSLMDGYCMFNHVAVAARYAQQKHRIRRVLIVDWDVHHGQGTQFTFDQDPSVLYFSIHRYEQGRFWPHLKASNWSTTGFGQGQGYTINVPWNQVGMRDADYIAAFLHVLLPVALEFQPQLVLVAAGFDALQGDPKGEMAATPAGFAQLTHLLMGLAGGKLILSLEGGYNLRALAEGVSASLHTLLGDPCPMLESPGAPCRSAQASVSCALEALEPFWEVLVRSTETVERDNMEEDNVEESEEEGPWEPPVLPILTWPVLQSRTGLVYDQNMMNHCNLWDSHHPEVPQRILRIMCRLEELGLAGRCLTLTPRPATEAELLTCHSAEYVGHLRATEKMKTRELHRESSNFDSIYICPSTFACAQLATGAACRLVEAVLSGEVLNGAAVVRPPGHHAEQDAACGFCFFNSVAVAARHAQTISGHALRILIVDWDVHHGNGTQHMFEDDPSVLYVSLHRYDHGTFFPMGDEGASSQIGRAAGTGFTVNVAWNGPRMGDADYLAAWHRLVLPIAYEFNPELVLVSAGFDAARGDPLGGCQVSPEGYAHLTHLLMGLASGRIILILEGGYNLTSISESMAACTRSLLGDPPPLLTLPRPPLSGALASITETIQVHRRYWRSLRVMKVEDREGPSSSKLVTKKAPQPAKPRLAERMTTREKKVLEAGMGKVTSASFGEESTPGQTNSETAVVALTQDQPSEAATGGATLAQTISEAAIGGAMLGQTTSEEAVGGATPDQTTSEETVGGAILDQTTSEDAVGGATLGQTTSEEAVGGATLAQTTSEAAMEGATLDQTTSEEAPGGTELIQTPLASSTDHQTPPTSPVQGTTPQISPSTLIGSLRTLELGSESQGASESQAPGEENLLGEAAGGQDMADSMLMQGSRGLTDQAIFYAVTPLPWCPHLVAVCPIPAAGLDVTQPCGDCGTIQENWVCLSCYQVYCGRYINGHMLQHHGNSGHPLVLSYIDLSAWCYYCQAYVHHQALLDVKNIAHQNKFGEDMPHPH
Source text: Histone Deacetylase Assay (BPS Biosciences)
Histone deacetylase assay was done as per manufacturer's instructions.

[12] = human, microsomes, 0.5 h, pH 7.4
Description: as §4

[13] = mouse, microsomes, 0.5 h, pH 7.4
Description: as §4

| SMILES | EC50 [1] [nM] | EC50 [2] [nM] | EC50 [3] [nM] | EC50 [4] [nM] | EC50 [5] [nM] | EC50 [6] [nM] | EC50 [7] [nM] | IC50 [8] [nM] | Metabolic stability HLM % remaining in 30 min [9] [%] | Metabolic stability MLM % remaining in 30 min [10] [%] | IC50 [11] [nM] | EC50 ([1]; MM1S cells) [nM] | Metabolic stability HLM % remaining in 30 min [12] | Metabolic stability MLM % remaining in 30 min [13] |
| --- | --- | --- | --- | --- | --- | --- | --- | --- | --- | --- | --- | --- | --- | --- |
| O=C(/C=C/c1ccc(CNC2CC2c2ccc(-c3ccc(Cl)cc3)cc2)cc1)NO (centres unmarked) [Example 5, (E)-3-(4-(((2-(4′-chloro-[1,1′-biphenyl]-4-yl)cyclopropyl)amino)methyl)phenyl)-N-hydroxyacrylamide TFA Salt] | 88 | 2300 | 26 | 1600 | 54 | 146 | 533 | 49 | 86 | 59 |  |  |  |  |
| O=C(NO)c1ccc(CCCN2CC3(CC(NC4CC4c4ccccc4)C3)C2)cc1 (centres unmarked) [Example 46, N-hydroxy-4-(3-(6-((2-phenylcyclopropyl)amino)-2-azaspiro[3.3]heptan-2-1)propyl)benzamide TFA Salt] |  |  |  |  |  |  |  | 26 |  |  | 477 | 71 | 54/47% | 54/47% |
| O=C(NO)c1ccc(CCCN2CCC(CNC3CC3c3ccc(F)cc3)CC2)cc1 (centres unmarked) [Example 47, 4-[3-(4-{[2-(4-Fluoro-phenyl)-cyclopropylamino]-methyl}-piperidin-1-yl)-propyl]-N-hydroxy-benzamide TFA Salt] |  | 3600 | 5 | 875 | 5 | 146 | 1400 | 6 | 54 | 66 | 51 |  |  |  |
| O=C(NO)c1ccc(CCCN2CCC(CNC3CC3c3ccc(OCc4ccc(F)cc4)cc3)CC2)cc1 (centres unmarked) [Example 52, 4-(3-(4-(((2-(4-((4-fluorobenzyl)oxy)phenyl)cyclopropyl)amino)methyl)piperidin-1-yl)propyl)-N-hydroxybenzamide TFA Salt] |  | 1700 | 5 | 891 | 1 | 22 | 371 | 4 | 79 | 56 | 12 |  |  |  |
